Assay in all cases: KiNativ profiling in H3255 cells
What all share (assay type): cell-based, human

In one experiment the test system is T1, AurB.
T1 construct: purchased ActivX Biosciences (KiNativ)
The note with it: 2.5 µM; Lys1; SHFIVALKVLFK
In outline:
(§1)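 In H3255 cells, 6.5x10^6 per sample, a 2 h treatment with DMSO or 2.5 μM ZNL-0056 preceded collection. Pellets were frozen in liquid nitrogen and the KiNativ experiment was finished by ActivX Biosciences.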

For another experiment, the system named is MAP3K15, MAP3K5, MAP3K6. The note with it: 2.5 µM; Lys1; IAIKEIPER
The gist of the method:
as §1

The test system of the next experiment is T2, MAPKAPK3.
T2 construct: purchased ActivX Biosciences (KiNativ)
The note with it: 2.5 µM; ATP Loop; QVLGLGVNGKVLECFHR
In outline: as §1

In another experiment the test system is T3, MST1.
T3 construct: purchased ActivX Biosciences (KiNativ)
The note with it: 2.5 µM; Lys1; ETGQIVAIKQVPVESDLQEIIK
The gist of the method: as §1

Another experiment has as its system T4, PI4K2B.
T4 construct: purchased ActivX Biosciences (KiNativ)
The note with it: 2.5 µM; ATP; SEEPYGQLNPKWTK
In outline: as §1

The next experiment deals with T5, RSK2 domain2.
T5 construct: RSK2 domain2; purchased ActivX Biosciences (KiNativ)
The note with it: 2.5 µM; Lys2; DLKPSNILYVDESGNPESIR
In outline: as §1

For another experiment, the system named is T6, AKT1.
T6 construct: purchased ActivX Biosciences (KiNativ)
The note with it: 2.5 µM; ATP Loop; GTFGKVILVK
How it is done:
(§2) treatment. Cell viability was determined by using CellTiter-Glo (Promega #G7571) according to the manufacturer’s instructions, measuring luminescence using an Envision plate-reader (PerkinElmer Inc.). Dose-response curves were generated using non-linear regression curve fit in GraphPad Prism 9.2.0(GraphPad Software).
(§3) Cellular target engagement assays
(§4) After 6 hours treatment, cells were pelleted, washed with PBS once and lysed with IP lysis buffer (25mMTris-HCl pH 7.4, 150mM NaCl, 1 mM EDTA, 1% NP-40 and 5% glycerol) (Thermo Fisher Scientific, Cat#87788) containing protease/phosphatase inhibitor cocktail (Roche). The protein concentrations were measured by BCA analysis (Pierce). Cell lysates were incubated with 1 μM of biotin conjugated probe (bio-Osimertinib or bio-ZNL-0013) at 4 ℃ overnight, and incubated for 3 more hours at room temperature. Lysates with probe were then incubated with streptavidin beads (Thermo Fisher, #20349) for 2 hours at 4 ℃. The protein-probe complexes on the beads were then subjected to immunoblotting.
(§5) H3255 cells were plated with 6.5x10^6 per condition in fresh media in 15 cm plates and treated the 80% confluency for 2 hours with DMSO or 2.5 μM of ZNL-0056. To harvest cells, plates were washed 3 times with cold PBS, then collected by scraping into 4 mL of cold PBS containing protease and phosphatase inhibitors. Cells were pelleted by centrifugation at 1350 g at 4 ℃ for 5 minutes and immediately frozen in liquid nitrogen. The frozen samples were sent to ActivX Biosciences (La Jolla, CA) for the remainder of the KiNativ profiling experiment4.
(§6) Protein expression and purification
(§7) Human EGFR kinase domain (residues 696-1022) with T790M and V948R mutations was cloned with an N-terminal, protease cleavable His -GST tag. Recombinant protein was expressed in SF9 insect cells using baculovirus generated from the pFastBac system (Thermo Fisher) .
(§8) Briefly, cells at a density of ~2x10^6 cells/mL were infected with 1% (v/v) virus stock and grown for ~72 hours before harvesting and freezing the cell pellet . Infected cells were lysed in buffer A (50 mM Tris pH 8.0, 500 mM NaCl, 5% glycerol, 0.5 mM Tris(2-carboxyethyl)phosphine [TCEP]), ultracentrifuged at >200,000 rcf for 1 h, and the supernatant flo wed through Ni-NTA resin by gravity. The resin was washed with buffer A supplemented with 40 mM imidazole by […]

A further experiment concerns AurA, AurB, AurC. The note with it: 2.5 µM; ATP Loop; GKFGNVYLAR
The protocol: as §2, §3, §4, §5, §6, §7, §8

In a further experiment the test system is T7, CK1g3.
T7 construct: purchased ActivX Biosciences (KiNativ)
The note with it: 2.5 µM; Lys2; DVKPENFLIGRPGNK
The protocol: as §2, §3, §4, §5, §6, §7, §8

A further experiment has as its system T8, EphB4.
T8 construct: purchased ActivX Biosciences (KiNativ)
The note with it: 2.5 µM; Activation Loop; FLEENSSDPTYTSSLGGKIPIR
How it is done: as §2, §3, §4, §5, §6, §7, §8

In another experiment the test system is MARK3, MARK4. The note with it: 2.5 µM; Lys1; EVAIKIIDK
The protocol: as §2, §3, §4, §5, §6, §7, §8

In another experiment the test system is T9, MPSK1.
T9 construct: purchased ActivX Biosciences (KiNativ)
The note with it: 2.5 µM; Lys2; DLKPTNILLGDEGQPVLMDLGSMNQACIHVEGSR
How it is done: as §2, §3, §4, §5, §6, §7, §8

In another experiment the test system is T10, MRCKb.
T10 construct: purchased ActivX Biosciences (KiNativ)
The note with it: 2.5 µM; Lys2; DIKPDNVLLDVNGHIR
How it is done: as §2, §3, §4, §5, §6, §7, §8

The test system of the next experiment is MST4, YSK1. The note with it: 2.5 µM; Lys2; DIKAANVLLSEQGDVK
How it is done: as §2, §3, §4, §5, §6, §7, §8

The test system of the next experiment is T11, NEK2.
T11 construct: purchased ActivX Biosciences (KiNativ)
The note with it: 2.5 µM; Lys2; DLKPANVFLDGK
How it is done:
as §2, §3, §4, §5, §6, §7, §8

In another experiment the test system is T12, PDK1.
T12 construct: purchased ActivX Biosciences (KiNativ)
The note with it: 2.5 µM; Lys1; EYAIKILEK
The protocol:
as §2, §3, §4, §5, §6, §7, §8

A further experiment concerns T13, PIP4K2B.
T13 construct: purchased ActivX Biosciences (KiNativ)
The note with it: 2.5 µM; ATP; AKDLPTFKDNDFLNEGQK
The protocol: as §2, §3, §4, §5, §6, §7, §8

For another experiment, the system named is T14, RSK1 domain2.
T14 construct: RSK1 domain2; purchased ActivX Biosciences (KiNativ)
The note with it: 2.5 µM; Lys2; DLKPSNILYVDESGNPECLR
The protocol: as §2, §3, §4, §5, §6, §7, §8

Another experiment has as its system T15, STLK5.
T15 construct: purchased ActivX Biosciences (KiNativ)
The note with it: 2.5 µM. The protocol: as §2, §3, §4, §5, §6, §7, §8

In another experiment the test system is T16, ILK.
T16 construct: purchased ActivX Biosciences (KiNativ)
The note with it: 2.5 µM.

The test system of a further experiment is T17, JAK1 domain1.
T17 construct: JAK1 domain1; purchased ActivX Biosciences (KiNativ)
The note with it: 2.5 µM; Activation Loop; QLASALSYLEDKDLVHGNVCTKNLLLAR

Setting [1] is: Activation Loop, YSVKVLPWLSPEVLQQNLQGYDAK
Where [2] appears, read: Protein Kinase Domain, ISMADVKFSFQCPGR

Data on two compounds can be found in paper PMC11212140, “Molecular Bidents with Two Electrophilic Warheads as a New Pharmacological Modality” (ACS Central Science, 2024).

For `C=CC(=O)Nc1cc(C(=O)Nc2nc3cccc(C)c3n2[C@@H]2CCCCN(C(=O)C=C)C2)cs1` [ZNL-0056], the Inhibition is 14.4% in the experiment on AurB; -7.9% in the experiment on MAP3K15, MAP3K5, MAP3K6; 4.1% in the experiment on MAPKAPK3; -5.5% in the experiment on MST1; -26.7% with PI4K2B; 4.0% in the experiment on RSK2 domain2. In addition, the Inhibition in the experiment on AKT1 is recorded as -1.6%; in the experiment with AurA, AurB, AurC, 2.2%; with CK1g3, 18.0%; in the experiment on EphB4, -4.5%; with MARK3, MARK4, 16.2%; in the experiment on MPSK1 it was 7.6%. Also, the Inhibition with MRCKb is 14.5%; with MST4, YSK1 it was -9.0%; in the experiment on NEK2 it was -9.4%; with PDK1, 17.6%; in the experiment on PIP4K2B it was 16.6%; in the experiment with RSK1 domain2 it was 11.8%. Besides, the Inhibition is -9.2% in the experiment on STLK5 (setting [1]); -41.2% with STLK5 (Lys2, SVKASHILISVDGK); -6.7% with ILK (Lys1, WQGNDIVVKVLK); -9.2% in the experiment with ILK (setting [2]); -24.3% with JAK1 domain1.

Take `C=CC(=O)Nc1cc(Nc2nccc(-c3cn(C)c4ccccc34)n2)c(OC)cc1N(C)CCN(C)C` [Osimertinib, osimertinib, reference compound]: the Inhibition in the experiment on AurB is recorded as 9.9%; in the experiment on MAP3K15, MAP3K5, MAP3K6, -10.0%; with MAPKAPK3, -14.1%; in the experiment on MST1, -24.9%; with PI4K2B, 26.7%; in the experiment with RSK2 domain2, -16.8%. Moreover, the Inhibition is -19.5% in the experiment on AKT1; 20.5% with AurA, AurB, AurC; 7.1% in the experiment on CK1g3; 19.2% with EphB4; -12.5% with MARK3, MARK4; 0.8% in the experiment on MPSK1. Besides, the Inhibition is listed as -26.5% in the experiment on MRCKb; -8.7% in the experiment on MST4, YSK1; -4.3% with NEK2; -20.7% in the experiment with PDK1; -4.2% in the experiment with PIP4K2B; -13.9% in the experiment with RSK1 domain2. Also, the Inhibition is listed as 2.8% in the experiment on STLK5 (setting [1]); 3.2% in the experiment on STLK5 (Lys2, SVKASHILISVDGK); -18.1% in the experiment on ILK (Lys1, WQGNDIVVKVLK); 14.1% in the experiment with ILK (setting [2]); -25.4% with JAK1 domain1.

The term Inhibition denotes the change of the read-out against control, counted positive when it falls.
